Reference: PubChem BioAssay AID1963866 (Molecular Pharmacology Branch, DTP, NCI, 2024)

Tested on: PDC KRAS tumor spheroids with HUVEC/MSC, viability
Assay: Anticancer human tumor 349418-098-R-PDC patient-derived lung adenocarcinoma cell line growth inhibition [KRAS2]
Conditions: for IC50: curve of first compound; for viability, T/C: stronger effect = lower value
From the text: Multicellular complex tumor spheroid response to RAS pathway inhibitors in combination with a targeted agents in patient-derived cell lines with oncogenic KRAS variants from multiple cancer types
A high-throughput screen of multi-cell type tumor spheroids was designed to identify active combinations of targeted small molecules and KRAS pathway inhibitors. Complex spheroids include a stromal component modeled by human endothelial cells (HUVEC) and fibroblasts modeled by human mesenchymal stem cells (MSCs). The concentration ranges selected for each drug and investigational agent were based upon clinically achievable concentrations if the clinical Cmax of the agent was known.
Compounds. The drugs and investigational agents: BI-3406 (NSC825286), BAY-293 (NSC824723), batoprotafib (TNO155; NSC825523), sotorasib (AMG 510; NSC818433), MRTX1257 (NSC819558), elimusertib (BAY 1895344; NSC800525), molibresib (GSK525762; NSC774829), temuterkib (LY3214996; NSC803410), venetoclax (NSC766270), alisertib (NSC759677), olaparib (NSC753686), talazoparib (NSC767125), erdafitinib (NSC781556), ipatasertib (NSC767898), cabozantinib (NSC761068), nintedanib (NSC756659), abemaciclib (NSC768073), docetaxel (NSC628503), trametinib (NSC758246), and sapanisertib (NSC764658) were obtained from the National Cancer Institute (NCI) Developmental Therapeutics Program Chemical Repository. The FDA-approved anticancer drug set is available from the Developmental Therapeutics Program. […] The stock solutions were prepared in dimethyl sulfoxide (DMSO, Sigma-Aldrich, St. Louis, MO, cat. D2650) at 800-fold the tested concentration and stored at -70 degrees C prior to their use. All drugs and investigational agents were tested over a range starting from a high concentration at or near the clinical Cmax and decreasing in half-log increments. If the clinical Cmax for an agent had not been determined, the highest concentration tested was 10 microM.
Cell Culture. All cells were maintained in an incubator at 37 degrees C and 5% CO2 with 95% humidity. The PDC lines were cultured according to standard operating procedures established by the NCI PDMR (https://pdmr.cancer.gov/sops/default.htm). Briefly, all PDCs were thawed and cultured in Matrigel-coated flasks prepared with a working solution of 1X Ham's F-12 nutrient mix, without supplementation (Invitrogen, Waltham, MA, cat. 11765054), 100 U/mL penicillin-streptomycin (Invitrogen, cat. 15140122), and 2.5% Matrigel (Corning Inc., Corning, NY, cat. 354248) for the first three passages. All PDCs were cultured in complete DMEM/F-12 media containing advanced DMEM/F-12 (Invitrogen, cat. 12634028), 4.9% defined fetal bovine serum, heat inactivated (HyClone Laboratories Inc., Logan, UT, cat. SH30070.03HI), 389 ng/mL hydrocortisone (Sigma-Aldrich, cat. H4001), 9.7 ng/mL human EGF recombinant protein (Invitrogen, cat. PHG0313), 23.4 microg/mL adenine (Sigma-Aldrich, cat. A2786), 97.3 U/mL penicillin-streptomycin (Invitrogen, cat. 15140122), 1.9 mM L-glutamine (Invitrogen, cat. 25030081), and 9.7 microM Y-27632 dihydrochloride (Tocris Bioscience, Bristol, United Kingdom, cat. 1254). The PDCs were cultured in complete DMEM/F12 media without 9.7 microM Y-27632 dihydrochloride for at least two passages prior to the screen. The established cell line HOP-62 was cultured in RPMI 1640 medium, HEPES (Invitrogen, cat. 22400105) with 10% defined fetal bovine serum (HyClone Laboratories Inc., cat. SH30070.03) and 2 mM L-glutamine (Invitrogen, cat. 25030081). The pooled donor HUVEC were cultured in endothelial cell growth medium 2 (PromoCell, Heidelberg, Germany, cat. C-22011) and the hMSC were cultured in mesenchymal stem cell growth medium 2 (PromoCell, cat. C-28009). For all experiments, HUVEC and hMSC were used at passages </=5, while the malignant cell lines were used at passages </=15. […]

[1] = second compound 0.1 µM, first compound 0.0316 µM
[2] = second compound 0.1 µM, first compound 0.1 µM
[3] = second compound 0.1 µM, first compound 0.316 µM
[4] = second compound 0.1 µM, first compound 1 µM
[5] = second compound 0.1 µM, first compound 3.16 µM
[6] = second compound 0.1 µM, first compound 10 µM
[7] = second compound 0.316 µM, first compound 0.0316 µM
[8] = second compound 0.316 µM, first compound 0.1 µM
[9] = second compound 0.316 µM, first compound 0.316 µM
[10] = second compound 0.316 µM, first compound 1 µM
[11] = second compound 0.316 µM, first compound 3.16 µM
[12] = second compound 0.316 µM, first compound 10 µM
[13] = second compound 1 µM, first compound 0.0316 µM
[14] = second compound 1 µM, first compound 0.1 µM
[15] = second compound 1 µM, first compound 0.316 µM
[16] = second compound 1 µM, first compound 1 µM
[17] = second compound 1 µM, first compound 3.16 µM
[18] = second compound 1 µM, first compound 10 µM
[19] = second compound 3.16 µM, first compound 0.0316 µM
[20] = second compound 3.16 µM, first compound 0.1 µM
[21] = second compound 3.16 µM, first compound 0.316 µM
[22] = second compound 3.16 µM, first compound 1 µM
[23] = second compound 3.16 µM, first compound 3.16 µM
[24] = second compound 3.16 µM, first compound 10 µM
[25] = second compound 10 µM, first compound 0.0316 µM
[26] = second compound 10 µM, first compound 0.1 µM
[27] = second compound 10 µM, first compound 0.316 µM
[28] = second compound 10 µM, first compound 1 µM
[29] = second compound 10 µM, first compound 3.16 µM
[30] = second compound 10 µM, first compound 10 µM
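Also: spheroids exposed to compounds for seven days before readout.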

**Q.** `COC(=O)c1ccc2c(C(=Nc3ccc(N(C)C(=O)CN4CCN(C)CC4)cc3)c3ccccc3)c(O)[nH]c2c1` + C=CC(=O)N1CCN(c2nc(=O)n(-c3c(C)ccnc3C(C)C)c3nc(-c4c(O)cccc4F)c(F)cc23)C(C)C1 was tested. Which IC50 (second compound 0.1 µM) did it give?
**A.** 157 nM

**Q.** What about the IC50 (second compound 0.316 µM) of the same molecule?
**A.** 226 nM

**Q.** What about the IC50 (second compound 1 µM) of the same molecule?
**A.** 242 nM

**Q.** What about the IC50 (second compound 3.16 µM) of the same molecule?
**A.** 106 nM

**Q.** And the IC50 (second compound 10 µM)?
**A.** < 31.6 nM

**Q.** And the viability, T/C [1]?
**A.** 88.1%

**Q.** What about the viability, T/C [2] of the same molecule?
**A.** 49.6%

**Q.** What about the viability, T/C [3] of the same molecule?
**A.** 47.2%

**Q.** What about the viability, T/C [4] of the same molecule?
**A.** 26.5%

**Q.** And the viability, T/C [5]?
**A.** 14.8%

**Q.** And the viability, T/C [6]?
**A.** 15.1%

**Q.** And the viability, T/C [7]?
**A.** 94.5%

**Q.** And the viability, T/C [8]?
**A.** 63.1%

**Q.** And the viability, T/C [9]?
**A.** 47.1%

**Q.** And the viability, T/C [10]?
**A.** 27.9%

**Q.** And the viability, T/C [11]?
**A.** 17.2%

**Q.** What about the viability, T/C [12] of the same molecule?
**A.** 15.5%

**Q.** What about the viability, T/C [13] of the same molecule?
**A.** 107%

**Q.** And the viability, T/C [14]?
**A.** 73.2%

**Q.** What about the viability, T/C [15] of the same molecule?
**A.** 39.8%

**Q.** And the viability, T/C [16]?
**A.** 30.4%

**Q.** And the viability, T/C [17]?
**A.** 18.1%

**Q.** And the viability, T/C [18]?
**A.** 13.7%

**Q.** And the viability, T/C [19]?
**A.** 72.4%

**Q.** And the viability, T/C [20]?
**A.** 47.9%

**Q.** What about the viability, T/C [21] of the same molecule?
**A.** 35.7%

**Q.** What about the viability, T/C [22] of the same molecule?
**A.** 28.4%

**Q.** And the viability, T/C [23]?
**A.** 11.6%

**Q.** What about the viability, T/C [24] of the same molecule?
**A.** 10.9%

**Q.** What about the viability, T/C [25] of the same molecule?
**A.** 40%

**Q.** What about the viability, T/C [26] of the same molecule?
**A.** 35.2%

**Q.** And the viability, T/C [27]?
**A.** 31.4%

**Q.** What about the viability, T/C [28] of the same molecule?
**A.** 25.3%

**Q.** What about the viability, T/C [29] of the same molecule?
**A.** 5.38%

**Q.** What about the viability, T/C [30] of the same molecule?
**A.** 1.56%

**Q.** Which results are given for `O=C(c1cc(Cc2n[nH]c(=O)c3ccccc23)ccc1F)N1CCN(C(=O)C2CC2)CC1` + C=CC(=O)N1CCN(c2nc(=O)n(-c3c(C)ccnc3C(C)C)c3nc(-c4c(O)cccc4F)c(F)cc23)C(C)C1?
**A.** IC50 (second compound 0.1 µM): 95.8 nM; IC50 (second compound 0.316 µM): 350 nM; IC50 (second compound 1 µM): 1630 nM; IC50 (second compound 3.16 µM): 1310 nM; IC50 (second compound 10 µM): < 31.6 nM; viability, T/C [1]: 84.6%; viability, T/C [2]: 47.1%; viability, T/C [3]: 32.3%; viability, T/C [4]: 21.4%; viability, T/C [5]: 17.5%; viability, T/C [6]: 14.8%; viability, T/C [7]: 92.6%; viability, T/C [8]: 86.3%; viability, T/C [9]: 52.2%; viability, T/C [10]: 26.3%; viability, T/C [11]: 30%; viability, T/C [12]: 17.2%; viability, T/C [13]: 100%; viability, T/C [14]: 92.8%; viability, T/C [15]: 83.1%; viability, T/C [16]: 71.2%; viability, T/C [17]: 20.6%; viability, T/C [18]: 20.9%; viability, T/C [19]: 68.7%; viability, T/C [20]: 67.2%; viability, T/C [21]: 75.8%; viability, T/C [22]: 51.9%; viability, T/C [23]: 33.7%; viability, T/C [24]: 18.3%; viability, T/C [25]: 42%; viability, T/C [26]: 43.9%; viability, T/C [27]: 36.3%; viability, T/C [28]: 27%; viability, T/C [29]: 29.2%; viability, T/C [30]: 14%
